From article PMC11909056, “Investigation of cholinesterase and α-glucosidase enzyme activities, and molecular docking and dft studies for 1,2-disubstituted cyclopentane derivatives with phenyl and benzyl units” (Molecular Diversity, 2024)

Columns and labels:
α-Glucosidase = α-Glucosidase (Saccharomyces cerevisiae, UniProt P53341); test: α-glucosidase inhibition with p-NPG substrate (Tao et al. method); format: biochemical
Description: Samples were made by dissolving 20 mg in 20 mL (EtOH:H2O). It was initially combined in 5–200 μL of sample with 700 μL of phosphate buffer (0.15 u/mL, pH 7.4) and 20 μL of enzyme solution [31, 32]. After a pre-incubation period of 10 min at 35 °C, 50 μL of p-NPG was added as the reaction began. Additionally, following the pre-incubation, 50 μL of p-NPG in phosphate buffer (5 mM, pH = 7.4) was added, and the incubation was repeated at 35 °C. A curve was fitted to the data to determine the IC50 and Ki values. […] (pH: 7.4).

[1] = molecular target: Acetylcholinesterase (AChE) (Electrophorus electricus, UniProt O42275); test: biochemical
Acetylcholinesterase (AChE), sequence (O42275 24-633): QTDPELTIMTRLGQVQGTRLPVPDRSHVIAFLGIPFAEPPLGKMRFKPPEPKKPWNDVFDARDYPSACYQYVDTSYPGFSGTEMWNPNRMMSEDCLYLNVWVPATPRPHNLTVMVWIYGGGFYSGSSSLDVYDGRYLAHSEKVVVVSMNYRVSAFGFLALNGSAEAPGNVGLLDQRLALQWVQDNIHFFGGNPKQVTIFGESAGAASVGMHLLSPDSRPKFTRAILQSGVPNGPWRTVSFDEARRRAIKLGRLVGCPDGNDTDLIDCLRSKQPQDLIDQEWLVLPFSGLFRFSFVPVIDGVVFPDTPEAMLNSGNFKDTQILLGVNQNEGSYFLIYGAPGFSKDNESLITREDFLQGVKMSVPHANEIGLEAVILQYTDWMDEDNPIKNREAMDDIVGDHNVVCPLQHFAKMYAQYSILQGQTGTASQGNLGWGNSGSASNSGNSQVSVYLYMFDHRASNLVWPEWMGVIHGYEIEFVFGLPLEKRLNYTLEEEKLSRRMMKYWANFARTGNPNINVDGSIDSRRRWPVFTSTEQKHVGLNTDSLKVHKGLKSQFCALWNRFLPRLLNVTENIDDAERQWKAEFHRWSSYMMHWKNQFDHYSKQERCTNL
Description: (§1) The Ellman approach was employed to examine the impact of synthetic chemicals on the ability to inhibit AChE and BChE activity. AChI/BChI and DTNB were used to quantify the AChE/BChE activity. […] For different concentrations of the sample solution, 100 μL of buffer (1 M, Tris/HCl, pH 8.0) were used to dissolve 10 μL of the sample solution. […] The incubation was followed by the addition of DTNB (50 μL, 0.5 mM). Lastly, to start the reaction, 50 μL of bChI/aChI were added. […] Then, the activities of AChE/BChE were evaluated.

[2] = molecular target: T1, Butyrylcholinesterase (BChE) (Equus caballus, UniProt P81908); test: biochemical
T1 construct: Butyrylcholinesterase from equine serum (CAS No.: 9001–08-5); from tissue; host or cells: equine serum
T1 sequence (P81908 whole entry): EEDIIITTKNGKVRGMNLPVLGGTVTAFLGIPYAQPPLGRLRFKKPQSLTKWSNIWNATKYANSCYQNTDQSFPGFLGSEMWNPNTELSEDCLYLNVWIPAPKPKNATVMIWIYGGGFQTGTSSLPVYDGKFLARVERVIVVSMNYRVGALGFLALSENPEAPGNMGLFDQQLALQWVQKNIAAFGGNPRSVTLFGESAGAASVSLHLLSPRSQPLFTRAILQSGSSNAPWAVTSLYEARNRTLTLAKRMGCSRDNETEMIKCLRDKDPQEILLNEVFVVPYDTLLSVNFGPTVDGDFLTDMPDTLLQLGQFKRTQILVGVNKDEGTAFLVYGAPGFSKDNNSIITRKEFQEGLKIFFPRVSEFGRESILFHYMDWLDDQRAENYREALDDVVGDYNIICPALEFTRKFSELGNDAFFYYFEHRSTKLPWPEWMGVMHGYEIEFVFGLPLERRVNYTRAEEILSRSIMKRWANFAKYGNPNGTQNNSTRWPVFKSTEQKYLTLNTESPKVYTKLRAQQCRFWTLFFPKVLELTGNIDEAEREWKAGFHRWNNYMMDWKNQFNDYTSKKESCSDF
Description: as §1

α-Glucosidase, sequence (P53341 whole entry): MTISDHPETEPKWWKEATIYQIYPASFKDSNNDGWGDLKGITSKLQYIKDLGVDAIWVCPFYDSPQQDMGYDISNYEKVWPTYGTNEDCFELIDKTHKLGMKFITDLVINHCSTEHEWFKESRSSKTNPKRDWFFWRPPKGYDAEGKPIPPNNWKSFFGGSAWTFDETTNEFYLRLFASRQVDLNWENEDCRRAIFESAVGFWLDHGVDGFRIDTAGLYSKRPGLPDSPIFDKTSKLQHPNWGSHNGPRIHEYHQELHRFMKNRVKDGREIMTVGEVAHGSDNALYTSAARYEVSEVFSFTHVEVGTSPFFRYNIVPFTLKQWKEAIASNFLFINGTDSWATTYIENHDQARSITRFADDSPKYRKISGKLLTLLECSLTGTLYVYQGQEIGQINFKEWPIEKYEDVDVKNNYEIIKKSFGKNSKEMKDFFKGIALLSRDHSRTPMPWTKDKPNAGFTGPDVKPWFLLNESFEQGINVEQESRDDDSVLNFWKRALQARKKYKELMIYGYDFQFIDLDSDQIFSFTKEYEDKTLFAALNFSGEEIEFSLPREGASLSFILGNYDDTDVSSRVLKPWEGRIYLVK

Work on COc1ccc(C(=O)C2=C(c3ccc(OC)c(OC)c3OC)CCC2)c(OC)c1OC [Compound 4, (2,3,4-trimethoxyphenyl)(2-(2,3,4-trimethoxyphenyl)cyclopent-1-en-1-yl)methanone] yielded an IC50 (α-Glucosidase) of 41.6 nM, a Ki (α-Glucosidase) of 48.9 ± 7.33 nM and an IC50 [1] of 102 nM. For the same compound, the Ki [1] was 99.7 ± 11.4 nM, the IC50 [2] was 414 nM and the Ki [2] was 403 ± 32.3 nM.
For COc1ccc(C(=O)C2CCC=C2c2ccc(OC)c(OC)c2OC)c(OC)c1OC (stereo not drawn) [Compound 5], the IC50 (α-Glucosidase) was 39.6 nM, the Ki (α-Glucosidase) was 44.7 ± 6.61 nM and the IC50 [1] was 92.2 nM. The Ki [1] was 87.9 ± 7.27 nM, the IC50 [2] was 187 nM and the Ki [2] was 176 ± 23.8 nM.
COc1ccc(C(=O)CCCCC(=O)c2ccc(OC)c(OC)c2OC)c(OC)c1OC [Compound 6] showed an IC50 (α-Glucosidase) of 27.2 nM, a Ki (α-Glucosidase) of 29.1 ± 4.25 nM and an IC50 [1] of 189 nM. It also gave a Ki [1] of 177 ± 22.6 nM, an IC50 [2] of 225 nM and a Ki [2] of 212 ± 13.7 nM.
In the case of COc1ccc(C(=O)CCCCC(=O)c2ccc(OC)c(OC)c2OC)c(O)c1OC [Compound 7], the IC50 (α-Glucosidase) is reported as 43.2 nM, the Ki (α-Glucosidase) is reported as 46.5 ± 6.34 nM and the IC50 [1] is reported as 644 nM. The Ki [1] was 632 ± 18.9 nM, the IC50 [2] was 646 nM and the Ki [2] was 622 ± 35.1 nM.
For COc1ccc(C(=O)CCCCC(=O)c2ccc(OC)c(OC)c2O)c(O)c1OC [Compound 8], the IC50 (α-Glucosidase) was 36.4 nM, the Ki (α-Glucosidase) was 38.5 ± 4.25 nM and the IC50 [1] was 174 nM. It also gave a Ki [1] of 171 ± 14.1 nM, an IC50 [2] of 222 nM and a Ki [2] of 209 ± 14.7 nM.
Work on COc1c(Br)cc(C(=O)C(Br)CCC(Br)C(=O)c2cc(Br)c(OC)c(OC)c2O)c(O)c1OC (stereo not drawn) [Compound 9] yielded an IC50 (α-Glucosidase) of 21.1 nM, a Ki (α-Glucosidase) of 25.5 ± 4.46 nM and an IC50 [1] of 49.8 nM. For the same compound, the Ki [1] was 45.5 ± 7.35 nM, the IC50 [2] was 450 nM and the Ki [2] was 428 ± 27.4 nM.
COc1ccc(C2=C(/C(=N/NC(C)=O)c3ccc(OC)c(OC)c3OC)CCC2)c(OC)c1OC [Compound 10, (Z)-N'-((2,3,4-Trimethoxyphenyl)(2-(2,3,4-trimethoxyphenyl)cyclopent-1-en-1-yl)methylene)acetohydrazide] showed an IC50 (α-Glucosidase) of 28.4 nM, a Ki (α-Glucosidase) of 31.2 ± 5.54 nM and an IC50 [1] of 205 nM. For the same compound, the Ki [1] was 196 ± 13.7 nM, the IC50 [2] was 135 nM and the Ki [2] was 131 ± 14.5 nM.
Compound COc1ccc(CC2CCCC2c2ccc(OC)c(OC)c2OC)c(OC)c1OC (stereo not drawn) [Compound 11, 1,2,3-Trimethoxy-4-(2-(2,3,4-trimethoxybenzyl)cyclopentyl)benzene] has an IC50 (α-Glucosidase) of 33.4 nM, a Ki (α-Glucosidase) of 38.1 ± 5.48 nM and an IC50 [1] of 170 nM. It also gave a Ki [1] of 151 ± 13.3 nM, an IC50 [2] of 155 nM and a Ki [2] of 145 ± 15.5 nM.
COc1c(Br)c(Br)c(CC2CCCC2c2c(Br)c(Br)c(OC)c(OC)c2OC)c(OC)c1OC (stereo not drawn) [Compound 12, 1,2-Dibromo-3-(2-(2,3-dibromo-4,5,6-trimethoxybenzyl)cyclopentyl)-4,5,6-trimethoxybenzene] showed an IC50 (α-Glucosidase) of 23.9 nM, a Ki (α-Glucosidase) of 27.4 ± 5.17 nM and an IC50 [1] of 65.5 nM. The Ki [1] was 61.1 ± 5.26 nM, the IC50 [2] was 92.7 nM and the Ki [2] was 84.3 ± 9.92 nM.
With COc1c(Br)cc(C2CCCC2Cc2c(Br)c(Br)c(OC)c(OC)c2OC)c(OC)c1OC (stereo not drawn) [Compound 13, 1,2-Dibromo-3-((2-(5-bromo-2,3,4-trimethoxyphenyl)cyclopentyl)methyl)-4,5,6-trimethoxybenzene] the IC50 (α-Glucosidase) was 31.6 nM, the Ki (α-Glucosidase) was 35.6 ± 3.95 nM and the IC50 [1] was 124 nM. The Ki [1] was 108 ± 5.14 nM, the IC50 [2] was 217 nM and the Ki [2] was 205 ± 17.4 nM.
